One assay concerns the target T1, JAK2 tyrosine kinase (Homo sapiens, UniProt O60674).
T1 construct: purchased Carnabioscience Co
Description: Test 1: inhibitory activity to JAK2 tyrosine kinase (ELISA). The assay is classed as biochemical. To be noted: 25 μM ATP in substrate solution, 30° C. for 1 hour, n=2. The essentials: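 Human JAK2 (diluted to 0.75 nM before addition) phosphorylated a biotinylated peptide on streptavidin plates for 1 h at 30 °C. The substrate mix held 625 nM peptide, 25 μM ATP and 25 mM MgCl2 in 15 mM Tris pH 7.5, 0.01% Tween-20 and 1 mM DTT. Phosphotyrosine was detected by HRP antibody/TMB at 450 nm, and IC50 was obtained by non-linear regression; duplicates were run.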
In general terms: An ELISA detects its analyte on a solid surface through an enzyme-linked reagent.

The target of a further assay is T2, JAK3 tyrosine kinase (Homo sapiens, UniProt P52333).
T2 construct: purchased Carnabioscience Co
T2 sequence (P52333 1-1124): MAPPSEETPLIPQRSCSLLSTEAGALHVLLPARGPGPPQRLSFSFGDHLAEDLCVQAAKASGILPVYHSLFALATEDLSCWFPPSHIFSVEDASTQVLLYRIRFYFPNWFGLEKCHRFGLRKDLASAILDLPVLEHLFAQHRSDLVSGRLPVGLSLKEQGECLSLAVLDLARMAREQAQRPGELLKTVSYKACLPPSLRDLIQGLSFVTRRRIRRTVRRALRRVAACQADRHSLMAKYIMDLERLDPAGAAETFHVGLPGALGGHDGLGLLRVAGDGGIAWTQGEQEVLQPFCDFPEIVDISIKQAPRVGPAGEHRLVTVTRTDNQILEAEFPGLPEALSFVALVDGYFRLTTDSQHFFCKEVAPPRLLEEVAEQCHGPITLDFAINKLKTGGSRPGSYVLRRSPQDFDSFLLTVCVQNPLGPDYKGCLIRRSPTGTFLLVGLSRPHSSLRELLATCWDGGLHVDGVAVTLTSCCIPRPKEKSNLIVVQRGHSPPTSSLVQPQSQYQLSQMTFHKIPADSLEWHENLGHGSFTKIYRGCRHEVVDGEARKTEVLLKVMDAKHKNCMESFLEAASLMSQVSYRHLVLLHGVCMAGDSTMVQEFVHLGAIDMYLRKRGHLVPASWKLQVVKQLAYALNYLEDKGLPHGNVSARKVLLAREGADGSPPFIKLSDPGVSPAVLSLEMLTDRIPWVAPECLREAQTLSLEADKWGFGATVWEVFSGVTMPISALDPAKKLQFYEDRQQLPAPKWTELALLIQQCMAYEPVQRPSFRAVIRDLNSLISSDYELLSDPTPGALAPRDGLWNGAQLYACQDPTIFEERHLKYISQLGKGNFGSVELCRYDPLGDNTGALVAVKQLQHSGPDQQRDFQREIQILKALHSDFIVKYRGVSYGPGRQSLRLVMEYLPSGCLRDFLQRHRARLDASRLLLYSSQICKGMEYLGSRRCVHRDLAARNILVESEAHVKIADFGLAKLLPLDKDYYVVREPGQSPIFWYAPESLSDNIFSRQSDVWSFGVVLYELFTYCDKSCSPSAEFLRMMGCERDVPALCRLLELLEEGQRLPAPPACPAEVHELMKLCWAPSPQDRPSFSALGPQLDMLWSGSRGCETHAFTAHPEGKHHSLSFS
Description: Test 1: inhibitory activity to JAK3 tyrosine kinase (ELISA). The assay is classed as biochemical. Particulars: 25 μM ATP in substrate solution, 30° C. for 1 hour, n=2. In outline:
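ELISA of JAK3 kinase activity with absorbance read at 450 nm. Compounds were tested from DMSO dilution series at 100-fold the measurement concentrations (1000–0.01 μM), diluted up to 20 times in assay buffer, against a DMSO negative control. IC50 was estimated by non-linear regression of absorbance.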

Where a name gives a salt, the structure may show the parent alone.

T1 sequence (O60674 whole entry): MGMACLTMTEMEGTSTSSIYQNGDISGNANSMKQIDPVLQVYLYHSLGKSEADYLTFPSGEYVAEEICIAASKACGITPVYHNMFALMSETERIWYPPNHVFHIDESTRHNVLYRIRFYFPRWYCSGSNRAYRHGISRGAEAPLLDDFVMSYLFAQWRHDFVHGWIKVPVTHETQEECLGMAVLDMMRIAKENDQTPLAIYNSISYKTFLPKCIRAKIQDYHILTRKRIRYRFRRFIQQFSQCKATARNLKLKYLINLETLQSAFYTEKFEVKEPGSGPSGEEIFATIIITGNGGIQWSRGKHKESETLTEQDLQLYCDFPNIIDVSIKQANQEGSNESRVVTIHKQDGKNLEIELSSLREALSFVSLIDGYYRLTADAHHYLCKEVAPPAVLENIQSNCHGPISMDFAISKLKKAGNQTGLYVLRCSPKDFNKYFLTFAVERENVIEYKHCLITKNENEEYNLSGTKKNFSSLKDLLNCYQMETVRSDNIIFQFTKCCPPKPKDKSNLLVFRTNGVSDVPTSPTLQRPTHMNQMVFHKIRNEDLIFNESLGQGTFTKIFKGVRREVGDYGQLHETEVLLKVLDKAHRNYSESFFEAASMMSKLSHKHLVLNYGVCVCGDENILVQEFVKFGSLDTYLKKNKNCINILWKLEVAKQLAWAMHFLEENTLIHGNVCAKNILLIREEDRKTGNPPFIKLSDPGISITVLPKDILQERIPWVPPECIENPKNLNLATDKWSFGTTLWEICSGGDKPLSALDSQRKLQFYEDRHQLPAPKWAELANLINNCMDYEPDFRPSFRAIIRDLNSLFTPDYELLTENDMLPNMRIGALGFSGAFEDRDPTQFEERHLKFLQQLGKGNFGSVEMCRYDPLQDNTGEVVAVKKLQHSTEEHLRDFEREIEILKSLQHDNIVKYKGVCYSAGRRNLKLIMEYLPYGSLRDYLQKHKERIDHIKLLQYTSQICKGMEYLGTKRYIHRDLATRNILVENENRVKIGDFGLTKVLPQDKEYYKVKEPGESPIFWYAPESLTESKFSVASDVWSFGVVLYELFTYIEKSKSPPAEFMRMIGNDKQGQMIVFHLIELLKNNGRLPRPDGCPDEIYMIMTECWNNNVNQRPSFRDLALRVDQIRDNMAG

As for `C[C@H](Nc1nc(Nc2cnccn2)cc(N2CC(C(=O)N3CCOCC3)C2)n1)c1ccc(F)cc1` [Example 196, (S)-(1-{2-[1-(4-Fluorophenyl)ethylamino]-6-(pyrazin-2-ylamino)pyrimidin-4-yl}azetidin-3-yl) (morpholino) methanone], the IC50 was determined as 0.64 nM at JAK2 tyrosine kinase and 35 nM on JAK3 tyrosine kinase.
Turning to `C[C@H](Nc1nc(Nc2cnccn2)cc(N2CC(C(=O)NC3CC3)C2)n1)c1ccc(F)cc1` [Example 197, (S)—N-(Cyclopropyl)-1-{2-[1-(4-fluorophenyl)ethylamino]-6-(pyrazin-2-ylamino)pyrimidin-4-yl}azetidine-3-carboxamide], the results for the IC50 against JAK2 tyrosine kinase and against JAK3 tyrosine kinase were 1.6 nM and 58 nM, respectively.
On to `C[C@H](Nc1nc(Nc2cnccn2)cc(N2CC(C(=O)NCC3CC3)C2)n1)c1ccc(F)cc1` [Example 198, (S)—N-(Cyclopropylmethyl)-1-{2-[1-(4-fluorophenyl)ethylamino]-6-(pyrazin-2-ylamino)pyrimidin-4-yl}azetidine-3-carboxamide], for which the 50% inhibitory concentration (IC50) on JAK2 tyrosine kinase stood at 1.6 nM; against JAK3 tyrosine kinase it was 60 nM.
As for `C[C@H](Nc1nc(Nc2cnccn2)cc(N2CC(C(=O)NCCO)C2)n1)c1ccc(F)cc1` [Example 199, (S)-1-{2-[1-(4-Fluorophenyl)ethylamino]-6-(pyrazin-2-ylamino)pyrimidin-4-yl}-N-(2-hydroxyethyl)azetidine-3-carboxamide], the IC50 on JAK2 tyrosine kinase is 1.6 nM; at JAK3 tyrosine kinase, 64 nM.
For `C[C@H](Nc1cc(N2CC(O)C2)cc(Nc2cnccn2)n1)c1ccc(F)cc1` [Example 202, (S)-1-{2-[1-(4-Fluorophenyl)ethylamino]-6-(pyrazin-2-ylamino)pyridin-4-yl}azetidin-3-ol hydrochloride], the IC50 was found to be 4.7 nM on JAK2 tyrosine kinase and 470 nM at JAK3 tyrosine kinase.
On to `C[C@H](Nc1cc(N2CC(O)(C3CC3)C2)cc(Nc2cnccn2)n1)c1ccc(F)cc1` [Example 203, (S)-3-Cyclopropyl-1-{2-[1-(4-fluorophenyl)ethylamino]-6-(pyrazin-2-ylamino)pyridin-4-yl}azetidin-3-ol hydrochloride], for which the values for the 50% inhibitory concentration (IC50) at JAK2 tyrosine kinase and against JAK3 tyrosine kinase were 4.5 nM and 120 nM, respectively.
Taken in the same sequence, the figures for `CC(C)C1(O)CN(c2cc(Nc3cnccn3)nc(N[C@@H](C)c3ccc(F)cc3)c2)C1` [Example 204, (S)-1-{2-[1-(4-Fluorophenyl)ethylamino]-6-(pyrazin-2-ylamino)pyridin-4-yl}-3-isopropylazetidin-3-ol hydrochloride] were 8.1 nM and 220 nM.
In the case of `C[C@H](Nc1cc(N2CC(C)(O)C2)cc(Nc2cnccn2)n1)c1ccc(F)cc1` [Example 205, (S)-1-{2-[1-(4-Fluorophenyl)ethylamino]-6-(pyrazin-2-ylamino)pyridin-4-yl}-3-methylazetidin-3-ol hydrochloride], the IC50 on JAK2 tyrosine kinase is 2.8 nM; against JAK3 tyrosine kinase it was 170 nM.
On to `C[C@H](Nc1cc(N2CC(O)(C(F)(F)F)C2)cc(Nc2cnccn2)n1)c1ccc(F)cc1` [Example 206, (S)-1-{2-[1-(4-Fluorophenyl)ethylamino]-6-(pyrazin-2-ylamino)pyridin-4-yl}-3-(trifluoromethyl)azetidin-3-ol hydrochloride], for which the IC50 was 10 nM on JAK2 tyrosine kinase and 360 nM at JAK3 tyrosine kinase.
Taken in the same sequence, the figures for `C[C@H](Nc1cc(N2CC(F)(F)C2)cc(Nc2cnccn2)n1)c1ccc(F)cc1` [Example 207, (S)-4-(3,3-Difluoroazetidin-1-yl)-N^2-[1-(4-fluorophenyl)ethyl]-N^6-(pyrazin-2-yl)pyridine-2,6-diamine hydrochloride] were 7 nM and 300 nM.
On to `CC(=O)Nc1cc(Nc2cnccn2)nc(N[C@@H](C)c2ccc(F)cc2)c1` [Example 208, (S)—N-{2-[1-(4-Fluorophenyl)ethylamino]-6-(pyrazin-2-ylamino)pyridin-4-yl}acetamide], for which the IC50 against JAK2 tyrosine kinase amounted to 1.4 nM; against JAK3 tyrosine kinase, 100 nM.
Regarding `C[C@H](Nc1cc(NS(C)(=O)=O)cc(Nc2cnccn2)n1)c1ccc(F)cc1` [Example 209, (S)—N-{2-[1-(4-Fluorophenyl)ethylamino]-6-(pyrazin-2-ylamino)pyridin-4-yl}methanesulfonamide hydrochloride], the values for the IC50 against JAK2 tyrosine kinase and on JAK3 tyrosine kinase were 7.1 nM and 440 nM, respectively.
Take `C[C@H](Nc1cc(NC(N)=O)cc(Nc2cnccn2)n1)c1ccc(F)cc1` [Example 210, (S)-1-[2-[1-(4-Fluorophenyl)ethylamino]-6-(pyrazin-2-ylamino)pyridin-4-yl]urea]: the IC50 was 3.2 nM at JAK2 tyrosine kinase and 180 nM at JAK3 tyrosine kinase.
For the molecule `COC1(C2CC2)CN(c2cc(Nc3cnccn3)nc(N[C@@H](C)c3ccc(F)cc3)c2)C1` [Example 211, (S)-4-(3-Cyclopropyl-3-methoxyazetidin-1-yl)-N^2-[1-(4-fluorophenyl)ethyl]-N^6-(pyrazin-2-yl)pyridine-2,6-diamine hydrochloride], the values for the half-maximal inhibitory concentration (IC50) at JAK2 tyrosine kinase and at JAK3 tyrosine kinase were 5.6 nM and 86 nM, respectively.
Taken in the same sequence, the figures for `COC1(C(C)C)CN(c2cc(Nc3cnccn3)nc(N[C@@H](C)c3ccc(F)cc3)c2)C1` [Example 212, (S)—N^2-[1-(4-Fluorophenyl)ethyl]-4-(3-isopropyl-3-methoxyazetidin-1-yl)-N^6-(pyrazin-2-yl)pyridine-2,6-diamine hydrochloride] were 15 nM and 160 nM.
Take `COC1(C)CN(c2cc(Nc3cnccn3)nc(N[C@@H](C)c3ccc(F)cc3)c2)C1` [Example 213, (S)—N^2-[1-(4-Fluorophenyl)ethyl]-4-(3-methoxy-3-methylazetidin-1-yl)-N^6-(pyrazin-2-yl)pyridine-2,6-diamine hydrochloride]: the IC50 was determined as 3.2 nM at JAK2 tyrosine kinase and 130 nM at JAK3 tyrosine kinase.
For the molecule `Cc1cnc(Nc2cc(-c3cnn(C)c3)cc(N[C@@H](C)c3ccc(F)cc3)n2)cn1` [Example 214, (S)—N^2-[1-(4-Fluorophenyl)ethyl]-4-(1-methyl-1H-pyrazol-4-yl)-N^6-(5-methylpyrazin-2-yl)pyridine-2,6-diamine], the IC50 is 5.5 nM against JAK2 tyrosine kinase and 380 nM at JAK3 tyrosine kinase.
In the same order, the values of `C[C@H](Nc1cc(C2CCN(S(C)(=O)=O)CC2)cc(Nc2cnccn2)n1)c1ccc(F)cc1` [Example 215, (S)—N^2-[1-(4-Fluorophenyl)ethyl]-4-[1-(methanesulfonyl)piperidin-4-yl]-N^6-(pyrazin-2-yl)pyridine-2,6-diamine] are 2.3 nM and 210 nM.
`CCC(=O)Nc1cc(Nc2cnccn2)nc(N[C@@H](C)c2ccc(F)cc2)c1` [Example 216, (S)—N-{2-[1-(4-Fluorophenyl)ethylamino]-6-(pyrazin-2-ylamino)pyridin-4-yl}propionamide]: the IC50 against JAK2 tyrosine kinase is 1.4 nM; on JAK3 tyrosine kinase it was 49 nM.
Taken in the same sequence, the figures for `COCCn1cc(-c2cc(Nc3cnccn3)nc(N[C@@H](C)c3ccc(F)cc3)c2)cn1` [Example 217, (S)—N^2-[1-(4-Fluorophenyl)ethyl]-4-[1-(2-methoxyethyl)-1H-pyrazol-4-yl]-N^6-(pyrazin-2-yl)pyridine-2,6-diamine] were 1.5 nM and 36 nM.
In the case of `C[C@H](Nc1cc(-c2cnn(C3CC3)c2)cc(Nc2cnccn2)n1)c1ccc(F)cc1` [Example 218, (S)-4-(1-Cyclopropyl-1H-pyrazol-4-yl)-N^2-[1-(4-fluorophenyl)ethyl]-N^6-(pyrazin-2-yl)pyridine-2,6-diamine], the IC50 turned out to be 2.2 nM against JAK2 tyrosine kinase and 85 nM against JAK3 tyrosine kinase.

Usually IC50 stands for the concentration that inhibits the measured activity by half. Read a low IC50 as inhibition by little substance.

(Values after patent US8586591B2, “Aminopyrazine derivative and medicine” (Nippon Shinyaku Co., Ltd., priority 2009, dated 2013).)
